{"source": "patent EP0531119B1", "about": "“N,N',N'-trisubstituted -5-bis-aminomethylene-1,3-dioxane-4,6-dione inhibitors of acyl-CoA: cholesterol-acyl transferase” (AMERICAN HOME PRODUCTS CORPORATION, priority 1991, dated 1993)", "key": {"[1]": {"tested_on": "acyl-coenzyme A: cholesterol acyltransferase", "experiment": "Inhibition of intracellular cholesterol esterification (ACAT), test procedure of Ross et al.", "type": "cell-based", "from_the_text": "The ability of the compounds of this invention to inhibit acyl-coenzyme A: cholesterol acyltransferase was established by initially showing that they inhibited intracellular cholesterol esterification by subjecting them to the standard experimental test procedure of Ross et al., J. Biol. Chem. 259 815 (1984). The results of these studies are presented in: Table I"}, "[2]": {"tested_on": "¹⁴C-Cholesterol Absorption", "experiment": "In vivo 14C-cholesterol absorption in normal rats", "details": "oral gavage, dose 10 mg/kg, blood samples six hours later", "procedure": "Representative compounds were further tested in vivo to establish the percent inhibition of cholesterol absorption. In this study, normal rats were dosed (oral gavage) with ¹⁴C-cholesterol plus the test compound. Blood samples taken exactly six hours later were analyzed and the percent inhibition of cholesterol absorption was calculated as shown in: Table II"}, "[3]": {"tested_on": "plasma cholesterol", "experiment": "Cholesterol-cholic acid fed rat, decrease of plasma cholesterol", "type": "in vivo", "details": "10 mg/kg, oral gavage just prior to and just following feeding, four days", "procedure": "In addition, the product of Example 1 was studied in vivo in the cholesterol-cholic acid fed rat to determine the percent decrease of cholesterol in their plasma This study involves rats which are, prior to testing, trained for one week to eat over a four hour time period each day. Upon initiation of the experiment, the rats diet is supplemented with 1.0 percent cholesterol and 0.25 percent cholic acid. The rats are dosed with the test compound by oral gavage just prior to and just following the four hour feeding period. This is repeated for four days. On the fifth day, the rats are sacrificed and the total plasma cholesterol content is determined. The percent decrease in elevated plasma cholesterol levels is calculated in comparison with […] controls."}}}
{"compound": "CCCCCCN(Cc1ccnc2ccccc12)C(Nc1cc(C(C)(C)C)c(O)c(C(C)(C)C)c1)=C1C(=O)OC(C)(C)OC1=O", "note": "[Example 1, 5-[[[3,5-Bis(1,1-dimethylethyl)-4-hydroxyphenyl]amino][hexyl(4-quinolinylmethyl)amino]methylene]-2,2-dimethyl-1,3-dioxane-4,6-dione]", "values": [{"measurement": "% Inhib, (Concentration - µM)", "setting": "[1]; 25 µM", "value": "69 (25) %"}, {"measurement": "IC50", "setting": "[1]; read-out: IC₅₀", "value": 2.96, "unit": "µM"}, {"measurement": "% Inhibition of Absorption", "setting": "[2]", "value": 72, "unit": "%"}, {"measurement": "decrease in plasma cholesterol", "setting": "[3]", "value": 50, "unit": "%"}]}
